{"source": "patent US6414147B1", "about": "“2-amino-9-alkylpurines: GABA brain receptor ligands” (Neurogen Corporation, priority 1998, dated 2002)", "data": [{"units": {"melting point": "°C"}, "values": [{"smiles": "CCCCn1cnc2c(OCC(=O)OCC)nc(Nc3ccc(OCC)nc3)nc21", "note": "[compound 82, 2-[(2-Ethoxypyrid-5-yl)amino]-6-carboethoxymethoxy-9-butyl-9H-purine]", "melting point": "77 to 80"}, {"smiles": "CCCCn1cnc2c(OCC(C)C)nc(Nc3ccc(OC)nc3)nc21", "note": "[compound 60, 2-[(2-Methoxypyrid-5-yl)amino]-6-(2-methylprop-1-oxy)-9-butyl-9H-purine]", "melting point": "88 to 90"}, {"smiles": "CCCCn1cnc2c(OCC(C)C)nc(Nc3ccc(OCC)nc3)nc21", "note": "[compound 83, 2-[(2-Ethoxypyrid-5-yl)amino]-6-(2-methylprop-1-oxy)-9-butyl-9H-purine]", "melting point": "96 to 98"}, {"smiles": "CCCCn1cnc2c(OCC)nc(Nc3ccc(OC)cc3OC)nc21", "note": "[compound 48, 2-[(2,4-Dimethoxyphenyl)amino]-6-ethoxy-9-butyl-9H-purine]", "melting point": "86 to 88"}, {"smiles": "CCCCn1cnc2c(OCCC)nc(Nc3ccccc3)nc21", "note": "[compound 4, 2-(Phenylamino)-6-propoxy-9-butyl-9H-purine]", "melting point": "115 to 116"}, {"smiles": "CCCCn1cnc2c(OCC(F)F)nc(Nc3ccc(OCC)nc3)nc21", "note": "[compound 80, 2-[(2-Ethoxypyrid-5-yl)amino]-6-(2,2-difluoroethoxy)-9-butyl-9H-purine]", "melting point": "151 to 152"}, {"smiles": "CCCCn1cnc2c(OCC(C)C)nc(Nc3ccccc3)nc21", "note": "[compound 6, 2-(Phenylamino)-6-(2-methylprop-1-oxy)-9-butyl-9H-purine]", "melting point": "77 to 79"}, {"smiles": "C#CCOc1nc(Nc2ccc(OCC)nc2)nc2c1ncn2CCCC", "note": "[compound 78, 2-[(2-Ethoxypyrid-5-yl)amino]-6-(2-propyn-1-oxy)-9-butyl-9H-purine]", "melting point": "151 to 153"}, {"smiles": "C=C(C)COc1nc(Nc2ccc(OC)nc2)nc2c1ncn2CCCC", "note": "[compound 67, 2-[(2-Methoxypyrid-5-yl)amino]-6-(2-methyl-2-propen-1-oxy)-9-butyl-9H-purine]", "melting point": "131 to 133"}, {"smiles": "CCCCn1cnc2c(OCC3CCCO3)nc(Nc3ccc(OC)nc3)nc21", "note": "(centres unmarked) [compound 62, 2-[(2-Methoxypyrid-5-yl)amino]-6-tetrahydrofurfuryloxy-9-butyl-9H-purine]", "melting point": "147 to 149"}, {"smiles": "CCCCn1cnc2c(OCC)nc(Nc3ccc(OCC)nc3)nc21", "note": "[compound 71, 2-[(2-Ethoxypyrid-5-yl)amino]-6-ethoxy-9-butyl-9H-purine]", "melting point": "167 to 169"}, {"smiles": "CCCCn1cnc2c(OCCOC)nc(Nc3ccccc3)nc21", "note": "[compound 10, 2-(Phenylamino)-6-(2-methoxyethoxy)-9-butyl-9H-purine]", "melting point": "129 to 131"}, {"smiles": "CCCCn1cnc2c(OCCOC)nc(Nc3ccc(F)cc3)nc21", "note": "[compound 28, 2-[(4-Fluorophenyl)amino]-6-(2-methoxyethoxy)-9-butyl-9h-purine]", "melting point": "165 to 166"}, {"smiles": "C=CCOc1nc(Nc2ccc(OCC)nc2)nc2c1ncn2CCCC", "note": "[compound 73, 2-[(2-Ethoxypyrid-5-yl)amino]-6-(2-propen-1-oxy)-9-butyl-9H-purine]", "melting point": "158 to 160"}, {"smiles": "CCCCn1cnc2c(OC)nc(Nc3ccccc3C)nc21", "note": "[compound 46, 2-[(2-Methylphenyl)amino]-6-methoxy-9-butyl-9H-purine]", "melting point": "91 to 93"}, {"smiles": "CCCCn1cnc2c(Oc3ccccc3)nc(Nc3ccc(OC)nc3)nc21", "note": "[compound 64, 2-[(2-Methoxypyrid-5-yl)amino]-6-phenoxy-9-butyl-9H-purine]", "melting point": "146 to 148"}, {"smiles": "CCCCn1cnc2c(OCc3ccccc3)nc(Nc3ccccc3)nc21", "note": "[compound 14, 2-(Phenylamino)-6-benzyloxy-9-butyl-9H-purine]", "melting point": "163 to 164"}, {"smiles": "CCCCn1cnc2c(OC(C)C)nc(Nc3ccccc3)nc21", "note": "[compound 5, 2-(Phenylamino)-6-isopropoxy-9-butyl-9H-purine]", "melting point": "116 to 118"}, {"smiles": "CCCCn1cnc2c(OC)nc(Nc3ccccc3OCC)nc21", "note": "[compound 45, 2-[(2-Ethoxyphenyl)amino]-6-methoxy-9-butyl-9H-purine]", "melting point": "77 to 79"}, {"smiles": "CCCn1cnc2c(Oc3ccccc3)nc(Nc3ccc(OC)nc3)nc21", "note": "[compound 66, 2-[(2-Methoxypyrid-5-yl)amino]-6-phenoxy-9-propyl-9H-purine]", "melting point": "188 to 190"}, {"smiles": "C=CCOc1nc(Nc2cnc3ccccc3c2)nc2c1ncn2CCCC", "note": "[compound 92, 2-[(Quinolin-3-yl)amino]-6-(2-propen-1-oxy)-9-butyl-9H-purine]", "melting point": "188 to 192"}, {"smiles": "CCCCn1cnc2c(Oc3ccccc3F)nc(Nc3ccc(F)cc3)nc21", "note": "[compound 34, 2-[(4-Fluorophenyl)amino]-6-(2-fluorophenoxy)-9-butyl-9H-purine]", "melting point": "155 to 157"}, {"smiles": "COc1nc(Nc2ccccc2)nc2c1ncn2CCC(C)C", "note": "[compound 24, 2-(Phenylamino)-6-methoxy-9-(3-methylbutyl)-9H-purine]", "melting point": "167 to 169"}, {"smiles": "CCCCn1cnc2c(OCCC(C)C)nc(Nc3ccc(F)cc3)nc21", "note": "[compound 32, 2-[(4-Fluorophenyl)amino]-6-(3-methylbut-1-oxy)-9-butyl-9H-purine]", "melting point": "88 to 90"}, {"smiles": "COc1nc(Nc2ccccc2)nc2c1ncn2CCCO", "note": "[compound 21, 2-(Phenylamino)-6-methoxy-9-(3-hydroxypropyl)-9H-purine]", "melting point": "90 to 94"}, {"smiles": "CCCCn1cnc2c(OCCF)nc(Nc3ccc(OCC)nc3)nc21", "note": "[compound 74, 2-[(2-Ethoxypyrid-5-yl)amino]-6-(2-fluoroethoxy)-9-butyl-9H-purine]", "melting point": "156 to 157"}, {"smiles": "CCCCn1cnc2c(OCC)nc(Nc3ccc(C)cc3C)nc21", "note": "[compound 51, 2-[(2,4-Dimethylphenyl)amino]-6-ethoxy-9-butyl-9H-purine]", "melting point": "97 to 99"}, {"smiles": "CCCCn1cnc2c(OCCO)nc(Nc3ccc(OCC)nc3)nc21", "note": "[compound 84, 2-[(2-Ethoxypyrid-5-yl)amino]-6-(2-hydroxyethoxy)-9-butyl-9H-purine]", "melting point": "166 to 168"}, {"smiles": "CCCCn1cnc2c(OCc3ccccn3)nc(Nc3ccc(OC)nc3)nc21", "note": "[compound 63, 2-[(2-Methoxypyrid-5-yl)amino]-6-(pyrid-2-ylmethoxy)-9-butyl-9H-purine]", "melting point": "150 to 153"}, {"smiles": "CCCCn1cnc2c(OCCF)nc(Nc3cnc4ccccc4c3)nc21", "note": "[compound 93, 2-[(Quinolin-3-yl)amino]-6-(2-fluoroethoxy)-9-butyl-9H-purine]", "melting point": "181 to 183"}, {"smiles": "CCCCn1cnc2c(OCC3CC3)nc(Nc3ccccc3)nc21", "note": "[compound 9, 2-(Phenylamino)-6-(cyclopropylmethoxy)-9-butyl-9H-purine]", "melting point": "124 to 126"}, {"smiles": "CCCCn1cnc2c(OCCO)nc(Nc3ccccc3)nc21", "note": "[compound 12, 2-(Phenylamino)-6-(2-hydroxyethoxy)-9-butyl-9H-purine]", "melting point": "108 to 110"}, {"smiles": "CCCCn1cnc2c(OC)nc(Nc3ccccc3OC)nc21", "note": "[compound 44, 2-[(2-Methoxyphenyl)amino]-6-methoxy-9-butyl-9H-purine]", "melting point": "101 to 103"}, {"smiles": "CCCCn1cnc2c(OC)nc(Nc3ccc(OC)c(OC)c3)nc21", "note": "[compound 52, 2-[(3,4-Dimethoxyphenyl)amino]-6-methoxy-9-butyl-9H-purine]", "melting point": "160 to 162"}, {"smiles": "CCCCn1cnc2c(OCCC)nc(Nc3cnc4ccccc4c3)nc21", "note": "[compound 87, 2-[(Quinolin-3-yl)amino]-6-propoxy-9-butyl-9H-purine]", "melting point": "215 to 220"}]}]}
